Results as given in patent US12371454B2, “Cyclic peptide compound having Kras inhibitory action” (priority 2019, dated 2025).
pIC50: −log10 of the molar value. Starred links: 1 amine or outer side, 2 acyl side, 3 side chain; linkers in the order of their positions; H or OH if unused. Positions of bridges follow the written chain, without caps; N, C: chain ends. Non-standard residues stand in square brackets, D forms with d. Residues, ends and D or L forms follow the SMILES beside them. *: point of attachment. NMeAbu(3,3-F2-piperidino) = CN[C@@H](CCN1CCCC(F)(F)C1)C(=O)O; hPhe(3-Cl-4-CF3) = N[C@@H](CCc1ccc(C(F)(F)F)c(Cl)c1)C(=O)O; 3Oxa8azabicyclo(3.2.1)octane = C1CC2COCC1N2*; NMeAbu(4,4,4-F3) = CN[C@@H](CC(F)(F)F)C(=O)O; NMePhe(3-Me) = CN[C@@H](Cc1cccc(C)c1)C(=O)O; NMePhe(4-Me) = CN[C@@H](Cc1ccc(C)cc1)C(=O)O; NMePhe(4-F) = CN[C@@H](Cc1ccc(F)cc1)C(=O)O; NMedβ3hAla = C[C@H](CC(=O)[*:2])N(C)[*:1]; NMeGly(cPent) = CN[C@H](C(=O)O)C1CCCC1; NMeAla(cPr) = CN[C@@H](CC1CC1)C(=O)O; NMeGly(cBu) = CN[C@H](C(=O)O)C1CCC1; NMeCha = CN[C@@H](CC1CCCCC1)C(=O)O; NMeCba = CN[C@@H](CC1CCC1)C(=O)O; NMeChg = CN[C@H](C(=O)O)C1CCCCC1; NMeI = CC[C@H](C)[C@H](NC)C(=O)O; NMeD = CN[C@@H](CC(=O)O)C(=O)O; NMeL = CN[C@@H](CC(C)C)C(=O)O; NMeV = CN[C@H](C(=O)O)C(C)C; NMeS = CN[C@@H](CO)C(=O)O; Iva = CC[C@](C)(N)C(=O)O; NMeA = CN[C@@H](C)C(=O)O; Piperidide = C1CCN(*)CC1; Ac5c = NC1(C(=O)O)CCCC1; Aze = O=C(O)[C@@H]1CCN1; Sar = CNCC(=O)O; Propyl = CCC*

Key:
[1] = target: T1, Kras and SOS1 (biotin-tagged human Kras loaded with GDP, His-tagged human SOS1) (Homo sapiens, UniProt P01116, G12D); assay: Protein-protein interaction inhibition between Kras and SOS1 (KrasGl2D-SOS PPI) using AlphaScreen; format: binding; settings: AlphaScreen; biotin-tagged human Kras loaded with GDP, His-tagged human SOS1; read-out: KRAS G12D-SOS PPI IC50
T1 construct: made in house; host or cells: E. coli (stated for Kras only)
Procedure, shortened: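 Donor beads (nickel) hold His-SOS1; acceptor beads (streptavidin) hold biotin-Kras bound to GDP. Signal measured at 520-620 nm following 680 nm excitation.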

[2] = system: Human pancreatic cancer cell line AsPC-1; assay: Measurement of AsPC-1 cell growth inhibition (AsPC-1 CGI); format: cell-based; settings: 96 h
Procedure, shortened: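 AsPC-1 cells in 15% FBS RPMI-1640 were exposed to test compound for 96 hours at 37° C, with CellTiter-Glo as endpoint.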

T1 sequence (P01116 1-188 isoform P01116-2 G12D): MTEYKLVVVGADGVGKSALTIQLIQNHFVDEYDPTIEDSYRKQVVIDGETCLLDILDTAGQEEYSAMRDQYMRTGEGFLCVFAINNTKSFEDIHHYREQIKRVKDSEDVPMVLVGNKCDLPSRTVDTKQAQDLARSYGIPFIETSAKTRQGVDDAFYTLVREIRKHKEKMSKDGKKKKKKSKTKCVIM

SMILES | pIC50 [1] | pIC50 [2]
CC[C@H](C)[C@@H]1NC(=O)[C@H](CC(C)C)N(C)C(=O)C[C@@H](C(=O)N(C)C)N(C)C(=O)[C@H](C2CCCC2)N(C)C(=O)C2(CCCC2)NC(=O)[C@H](CCN2CCCC(F)(F)C2)N(C)C(=O)[C@H](CCc2ccc(C(F)(F)F)c(Cl)c2)NC(=O)CN(C)C(=O)[C@H](CC2CCCCC2)N(C)C(=O)[C@@H]2CCN2C(=O)[C@H](C)N(C)C1=O [Compound 910] ([NMeL]I[NMeA][Aze][NMeCha][Sar][hPhe(3-Cl-4-CF3)][NMeAbu(3,3-F2-piperidino)][Ac5c][NMeGly(cPent)][NMeD]-NMe2; lactam N-11) | 8.37 | 6.30 to 7.00
CC[C@H](C)[C@@H]1NC(=O)[C@H](CC2CCC2)N(C)C(=O)C[C@@H](C(=O)N2CCCCC2)N(C)C(=O)[C@H](C(C)C)N(C)C(=O)C2(CCCC2)NC(=O)[C@@H]2CCCN2C(=O)[C@H](CCc2ccc(C(F)(F)F)c(Cl)c2)NC(=O)CN(C)C(=O)[C@H](CC2CCCCC2)N(C)C(=O)CN(C)C(=O)CN(C)C1=O [Compound 911] ([NMeCba]I[Sar][Sar][NMeCha][Sar][hPhe(3-Cl-4-CF3)]P[Ac5c][NMeV][NMeD]-Piperidide; lactam N-11) | 8.35 | 6.30 to 7.00
CC[C@H](C)[C@@H]1NC(=O)[C@H](CC(C)C)N(C)C(=O)C[C@@H](C(=O)N(C)C)N(C)C(=O)[C@H]([C@@H](C)CC)N(C)C(=O)C2(CCCC2)NC(=O)[C@H](Cc2cccc(C)c2)N(C)C(=O)[C@H](CCc2ccc(C(F)(F)F)c(Cl)c2)NC(=O)CN(C)C(=O)[C@H](Cc2ccc(C)cc2)N(C)C(=O)[C@@H]2CCN2C(=O)[C@H](C)N(C)C1=O [Compound 912] ([NMeL]I[NMeA][Aze][NMePhe(4-Me)][Sar][hPhe(3-Cl-4-CF3)][NMePhe(3-Me)][Ac5c][NMeI][NMeD]-NMe2; lactam N-11) | 7.92 | 7.00 to 7.30
CC[C@H](C)[C@@H]1NC(=O)[C@H](CC(C)C)N(C)C(=O)C[C@@H](C(=O)N(C)C)N(C)C(=O)[C@H](C2CCCC2)N(C)C(=O)C2(CCCC2)NC(=O)[C@H](Cc2ccc(F)cc2)N(C)C(=O)[C@H](CCc2ccc(C(F)(F)F)c(Cl)c2)NC(=O)CN(C)C(=O)[C@H](CC2CCCCC2)N(C)C(=O)[C@@H]2CCN2C(=O)[C@H](C)N(C)C1=O [Compound 920] ([NMeL]I[NMeA][Aze][NMeCha][Sar][hPhe(3-Cl-4-CF3)][NMePhe(4-F)][Ac5c][NMeGly(cPent)][NMeD]-NMe2; lactam N-11) | 7.82 | 6.30 to 7.00
CC[C@H](C)[C@@H]1NC(=O)[C@H](CC(C)C)N(C)C(=O)C[C@@H](C)N(C)C(=O)[C@H](C(C)C)N(C)C(=O)C2(CCCC2)NC(=O)[C@@H]2CCCN2C(=O)[C@H](CCc2ccc(C(F)(F)F)c(Cl)c2)NC(=O)CN(C)C(=O)[C@H](CC2CC2)N(C)C(=O)CN(C)C(=O)CN(C)C1=O [Compound 930] (cyclo([Ac5c][NMeV][NMedβ3hAla][NMeL]I[Sar][Sar][NMeAla(cPr)][Sar][hPhe(3-Cl-4-CF3)]P)) | 7.41 | 6.30 to 7.00
CCCOC[C@H]1C(=O)N(C)CC(=O)N[C@@H](CCc2ccc(C(F)(F)F)c(Cl)c2)C(=O)N2CCC[C@H]2C(=O)NC2(CCCC2)C(=O)N(C)[C@@H](C2CCCCC2)C(=O)N(C)[C@H](C(=O)N2C3CCC2COC3)CC(=O)N(C)[C@@H](CC(F)(F)F)C(=O)N[C@@H]([C@@H](C)CC)C(=O)N(C)CC(=O)N(C)CC(=O)N1C [Compound 943] ([NMeAbu(4,4,4-F3)]I[Sar][Sar][NMeS](Propyl)[Sar][hPhe(3-Cl-4-CF3)]P[Ac5c][NMeChg][NMeD]-{3Oxa8azabicyclo(3.2.1)octane}; lactam N-11) | 9.08 | 6.30 to 7.00
CC[C@H](C)[C@@H]1NC(=O)[C@H](CC(C)C)N(C)C(=O)C[C@@H](C)N(C)C(=O)[C@H](C(C)C)N(C)C(=O)[C@](C)(CC)NC(=O)[C@@H]2CCCN2C(=O)[C@H](CCc2ccc(C(F)(F)F)c(Cl)c2)NC(=O)CN(C)C(=O)[C@H](CC2CCCCC2)N(C)C(=O)CN(C)C(=O)CN(C)C1=O [Compound 944] (cyclo(I[Sar][Sar][NMeCha][Sar][hPhe(3-Cl-4-CF3)]P[Iva][NMeV][NMedβ3hAla][NMeL])) | 7.74 | 6.30 to 7.00
CC[C@H](C)[C@@H]1NC(=O)[C@H](C2CCC2)N(C)C(=O)C[C@@H](C(=O)N2CCCCC2)N(C)C(=O)[C@H](C(C)C)N(C)C(=O)C2(CCCC2)NC(=O)[C@@H]2CCCN2C(=O)[C@H](CCc2ccc(C(F)(F)F)c(Cl)c2)NC(=O)CN(C)C(=O)[C@H](CC2CCCCC2)N(C)C(=O)CN(C)C(=O)CN(C)C1=O [Compound 948] ([NMeGly(cBu)]I[Sar][Sar][NMeCha][Sar][hPhe(3-Cl-4-CF3)]P[Ac5c][NMeV][NMeD]-Piperidide; lactam N-11) | 8.51 | 7.00 to 7.30
